{"source": "patent US7858329B2", "about": "“Antibody tools for the diagnostic use in the medical therapy with inhibitors of histone deacetylases” (TopoTarget Germany AG, priority 2002, dated 2010)", "key": {"[1]": {"tested_on": "stage III/IV non-small cell lung cancer", "conditions": "phase II, monotherapy; cited from earlier work"}, "[2]": {"tested_on": "acetylated histone H3 and histone H4 in U937 cells", "test": "Western blot of histone acetylation in U937 cells treated with HDACi", "format": "cell-based, human", "conditions": "for levels of acetylated histone H3 and histone H4 by Western blot: treatment in vitro for 6-12 hours"}, "[3]": {"tested_on": "tumor cells transduced with HDAC/MTA constructs (HDAC-1, HDAC-2, MTA1)", "test": "Sensitivity to HDAC inhibitor of transduced primary tumor-derived cell culture", "format": "cell-based", "conditions": "histone hypoacetylation", "procedure": "An aliquot of the cells was collected, and Western blot analysis (using antibodies directed against acetylated histone H4) was performed on protein extracts prepared from these cells, to verify that overexpression of either HDAC, or of MTA1, led to a decrease in histone acetylation levels of the tumor cells."}, "[4]": {"tested_on": "control-transduced (MCSV) primary tumor-derived cells", "test": "Sensitivity to HDAC inhibitor of transduced primary tumor-derived cell culture", "format": "cell-based", "conditions": "high histone H4 acetylation"}, "[5]": {"tested_on": "cells derived from \"class A\" (globally hypoacetylated) primary human breast tumors", "test": "Apoptosis of cultured primary breast tumor cells treated with HDAC inhibitors", "format": "cell-based", "conditions": "cells from four class A tumors", "experimental": "(§1) To establish whether this classification may have additional correlations with tumor biology and potential influences on the choice of clinical therapeutic treatments, the sensitivity of tumor cells derived from “class A” or “class B” primary human breast tumors to various HDAC inhibitors was evaluated in vitro (FIG. 7-8). To investigate this further, cells derived from excision surgery of primary breast tumors were cultured (on which in parallel IHC using the T25 antibody was performed to establish the histone acetylation levels in vivo) following standard procedures (Elenbaas et al., 2001, Genes Dev 15, 50-65). After a few passages in culture (in the absence of fetal bovine serum, to eliminate contamination of fibroblasts), the cell population is greatly enriched in tumor cells. The bulk populations of cells derived from four “class A” and three “class B” tumors were then treated with VPA, or TSA (FIGS. 7-8). […] The immunohistochemical classification as described here, can therefore be used to predict the response of tumor cells to treatment with HDAC inhibitors and could thus be used for prognostic predictions whether a patient should be treated with such inhibitors."}, "[6]": {"tested_on": "cells derived from \"class B\" primary human breast tumors", "test": "Apoptosis of cultured primary breast tumor cells treated with HDAC inhibitors", "format": "cell-based", "conditions": "cells from three class B tumors", "experimental": "as §1"}, "[7]": {"tested_on": "histone acetylation in U-937 cells", "test": "Flow cytometry of histone acetylation (T52 staining) in U937 cells", "format": "cell-based, human", "conditions": "10 ng/ml for 4 hrs, untreated cells 90", "experimental": "Human U-937 cells were grown in RPMI-1640 medium supplemented with 10% Fetal Bovine Serum in standard culture conditions.\nExponentially growing U-937 cells were treated for 4 hrs with 10 ng/ml Trichostatin A (TSA, Sigma Aldrich). After the treatment cells were washed with cold phosphate buffer saline (PBS), counted and fixed in 1% formaldehyde in PBS for 15 minutes. Fixed cells were then washed, resuspended in PBS, and stocked at 4° C.\nHistone acetylation analysis was performed according to the following procedure. Cells were fixed for 15 minutes in 1% formaldehyde in PBS. 1×10^6 cells/sample were washed with PBS+1% BSA and permeabilised with 200 μl of 0.1% Triton X100 in PBS for 10 min at room temperature (to allow for the antibody to reach acetylated nuclear proteins, such as histones). After washing with PBS+1% BSA pellets were incubated with 500 μl of 10% normal goat serum (NGS) in PBS for 20 min at 4° C. Histone acetylation levels were detected by incubation with T52 mouse monoclonal antibody (1 μg/ml in PBS+1% BSA). […]\nFlow cytometry analysis was performed using a FACScan flow cytometer (Becton Dickinson), acquiring at least 10,000 events/sample. The instrument was equipped with a bandpass 530/30 nm optical filter for FITC fluorescence detection (FL1 channel) and a 650 nm longpass optical filter in front of the PI (FL3) channel detector. […]"}, "[8]": {"tested_on": "histone acetylation in peripheral blood mononuclear cells", "test": "Flow cytometry of histone acetylation in blood mononuclear cells of patients under VPA treatment", "format": "in vivo, human", "conditions": "10 to 30 mg/kg/day", "procedure": "Histone acetylation analysis was performed according to the following procedure. Cells were fixed for 15 minutes in 1% formaldehyde in PBS. 1×10^6 cells/sample were washed with PBS+1% BSA and permeabilised with 200 μl of 0.1% Triton X100 in PBS for 10 min at room temperature (to allow for the antibody to reach acetylated nuclear proteins, such as histones). After washing with PBS+1% BSA pellets were incubated with 500 μl of 10% normal goat serum (NGS) in PBS for 20 min at 4° C. Histone acetylation levels were detected by incubation with T52 mouse monoclonal antibody (1 μg/ml in PBS+1% BSA). Detection was performed by incubation with a fluorescein isothiocyanate (FITC)-conjugated affinity pure F(ab′)2 fragment of goat anti-mouse IgG (Sigma) for 1 h at room temperature in the dark."}, "[9]": {"tested_on": "acetylated histone H4 in U937 cells", "test": "Immunohistochemistry (T25) of U937 cells treated with HDACi", "format": "cell-based, human", "conditions": "12 hours, 1 mM, T25 antibody", "experimental": "To evaluate the specificity of the T25 antibody in immunohistochemistry (IHC), the inventors performed a preliminary test in an established cell line (U937 cells). […] Untreated cells, or cells treated for 12 hours with VPA (1 mM), were either processed for Western blot analysis (FIG. 3A), or fixed in formalin and then processed for immunohistochemistry (FIG. 1B). […] The T25 antibody can therefore be used for the analysis of histone acetylation levels by western blot analysis and immunohistochemistry (IHC)."}, "[10]": {"test": "Plasmatic VPA concentration in treated patients", "format": "in vivo, human", "conditions": "10 to 30 mg/kg/day", "experimental": "HDAC inhibitors are currently being tested for their clinical use in tumor patients (Marks et al., 2001, Nat Rev Cancer 1, 194-202). Therefore, the inventors evaluated the response to valproic acid, VPA (a HDAC inhibitor currently in clinical trials for several forms of cancer), in blood samples of patients subjected to VPA treatment. Peripheral blood was collected periodically before/at various times of VPA treatment (10 to 30 mg/kg/day; plasmatic VPA concentration: 0,75 mM), mononuclear cells were isolated by Ficoll analysis and then analyzed as described. […] The histone acetylation level measured in blood cells may serve as marker to evaluate the efficacy of HDAC inhibitor treatment of patients suffering from tumors, including solid tumors, to further orientate the treatment schedule."}, "T-cell lymphomas": {"tested_on": "T-cell lymphomas", "conditions": "phase II; cited from earlier work"}}, "data": [{"compound": "CCCC(=O)OCOC(=O)C(C)(C)C", "note": "[Pivanex]", "values": [{"measurement": "clinical activity", "setting": "[1]", "result": "demonstrating activity"}]}, {"compound": "CC(/C=C/C(=O)NO)=C\\[C@@H](C)C(=O)c1ccc(N(C)C)cc1", "note": "[TSA, Trichostatin A]", "values": [{"measurement": "acetylated histones H3 and H4 bands in Western blot", "setting": "[2]; detection with T52 antibody (FIG. 9)", "result": "greatly increased"}, {"measurement": "levels of acetylated histone H3 and histone H4 by Western blot", "setting": "[2]", "result": "drastic increase"}, {"measurement": "apoptosis", "setting": "[3]", "result": "up to 50%"}, {"measurement": "sensitivity to treatment (apoptosis)", "setting": "[4]", "result": "resistant"}, {"measurement": "apoptosis upon treatment with the HDAC inhibitors", "setting": "[5]", "result": "showed apoptosis"}, {"measurement": "apoptosis upon treatment with the HDAC inhibitors", "setting": "[6]", "result": "totally resistant"}, {"measurement": "mean fluorescence value (FL1-H), T52 staining", "setting": "[7]", "result": 450}]}, {"compound": "CCCC(CCC)C(=O)O", "note": "[VPA, valproic acid]", "values": [{"measurement": "Histone acetylation levels, increase", "setting": "[8]; after 7-days of treatment (day 8)", "result": "> 3", "unit": "fold"}, {"measurement": "Histone acetylation levels", "setting": "[8]; day 28-35", "result": "further increased"}, {"measurement": "levels of acetylated histone H3 and histone H4 by Western blot", "setting": "[2]", "result": "drastic increase"}, {"measurement": "acetylated histone H4 staining in immunohistochemistry", "setting": "[9]", "result": "increase in the intensity of staining and number of stained cell nuclei"}, {"measurement": "apoptosis upon treatment with the HDAC inhibitors", "setting": "[5]", "result": "showed apoptosis"}, {"measurement": "apoptosis upon treatment with the HDAC inhibitors", "setting": "[6]", "result": "totally resistant"}, {"measurement": "plasmatic VPA concentration", "setting": "[10]", "result": "0,75 mM"}]}, {"compound": "C/C=C1\\NC(=O)[C@H]2CSSCC/C=C/[C@H](CC(=O)N[C@H](C(C)C)C(=O)N2)OC(=O)[C@H](C(C)C)NC1=O", "note": "[depsipeptide]", "values": [{"measurement": "clinical outcome", "setting": "T-cell lymphomas", "result": "used successfully"}]}]}
